Values quoted from earlier work in patent publication US4952402A, “Controlled release powder and process for its preparation” (priority 1984, dated 1990).

SMILES: Cn1c(=O)c2[nH]cnc2n(C)c1=O [theophylline]
- apparent biological half-life (in vivo): 4-9 hours
- time of peak (rapid or immediate release): 2 h
